Data published in the supplement of paper PMC8671470.

Experiments:
Settings in all cases: 72 h
BV-173 [1] = test system: BV-173
Procedure, shortened: (§1)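 Each of fifteen myeloid leukaemia cell lines was seeded in RPMI 1640 at a density titrated to its linear growth range. The cells were incubated for 72 h at 37 °C and 5% CO2 with compounds at five tenfold doses from 1 to 10,000 nM, in duplicate. After ATP luminescence was normalised to vehicle and to a positive control at 10 µM, four-parameter log-logistic curves were fitted. These curves gave the IC50.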

HEL [2] = test system: HEL
Procedure, shortened: as §1

HL-60 [3] = test system: HL-60
Procedure, shortened: as §1

K-562 = test system: K-562
Procedure, shortened: as §1

KCL-22 [4] = test system: KCL-22
Procedure, shortened: as §1

KG-1 [5] = test system: KG-1
Procedure, shortened: as §1

KU-812 [6] = test system: KU-812
Procedure, shortened: as §1

LAMA-84 [7] = test system: LAMA-84
Procedure, shortened: as §1

ML-2 [8] = test system: ML-2
Procedure, shortened: as §1

MOLM-13 [9] = test system: MOLM-13
Procedure, shortened: as §1

MV4-11 [10] = test system: MV4-11
Procedure, shortened: as §1

Mono-Mac-6 [11] = test system: Mono-Mac-6
Procedure, shortened: as §1

NOMO-1 [12] = test system: NOMO-1
Procedure, shortened: as §1

SHI-1 [13] = test system: SHI-1
Procedure, shortened: as §1

THP-1 [14] = test system: THP-1
Procedure, shortened: as §1

BV-173 [15] = test: cell viability (% survival relative to DMSO control, bortezomib = 0%); higher = less cytotoxic
Procedure, shortened: (§2)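 Fifteen myeloid leukaemia cell lines (10 AML, 5 CML) were seeded at a density titrated to the linear growth range into 384-well plates pre-printed with compounds at 1, 10, 100, 1000 or 10000 nM in duplicate. Plates were incubated for 72 h at 37 °C with 5% CO2. Viability was then read by CellTiter-Glo luminescence. Each value is percent survival averaged over the duplicates, with vehicle set to 100% and a 10 µM positive control to 0%.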

HEL [16] = test: as above
Procedure, shortened: as §2

HL-60 [17] = test: as above
Procedure, shortened: as §2

KCL-22 [18] = test: as above
Procedure, shortened: as §2

KG-1 [19] = test: as above
Procedure, shortened: as §2

KU-812 [20] = test: as above
Procedure, shortened: as §2

LAMA-84 [21] = test: as above
Procedure, shortened: as §2

ML-2 [22] = test: as above
Procedure, shortened: as §2

MOLM-13 [23] = test: as above
Procedure, shortened: as §2

MV4-11 [24] = test: as above
Procedure, shortened: as §2

Mono-Mac-6 [25] = test: as above
Procedure, shortened: as §2

NOMO-1 [26] = test: as above
Procedure, shortened: as §2

SHI-1 [27] = test: as above
Procedure, shortened: as §2

THP-1 [28] = test: as above
Procedure, shortened: as §2

HL-60 [29] = test: area under dose-response curve (viability, 1 nM-10 uM) (fraction (0-1)); higher = more sensitive
Procedure, shortened: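 A rescreen of the full library used HL-60 cells in RPMI 1640 with 10% FBS on 384-well plates, run in duplicate at five tenfold concentrations (1–10,000 nM). Each screen included DMSO or 100 nM of one of three metabolic inhibitors and ran 72 h at 37 °C, 5% CO2. CellTiter-Glo viability was scaled between DMSO and 10 μM proteasome-inhibitor wells. Any area under the curve comes from four-parameter log-logistic fits with drc and PharmacoGx.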

O=C(O)CCCCC(CCSCc1ccccc1)SCc1ccccc1 (configuration not stated) [CPI-613]
Settings	IC50 (cell viability) [µM]
BV-173 [1]	> 10
HEL [2]	> 10
HL-60 [3]	> 10
K-562	> 10
KCL-22 [4]	> 10
KG-1 [5]	> 10
KU-812 [6]	> 10
LAMA-84 [7]	> 10
ML-2 [8]	> 10
MOLM-13 [9]	> 10
MV4-11 [10]	> 10
Mono-Mac-6 [11]	> 10
NOMO-1 [12]	> 10
SHI-1 [13]	> 10
THP-1 [14]	> 10

Settings	area under dose-response curve, co-treatment: AZD3965 100 nM	area under dose-response curve, co-treatment: DMSO vehicle	area under dose-response curve, co-treatment: GSK2194069 100 nM	area under dose-response curve, co-treatment: pictilisib 100 nM	cell viability, 1 nM [%]	cell viability, 10 nM [%]	cell viability, 100 nM [%]	cell viability, 1000 nM [%]	cell viability, 10000 nM [%]
BV-173 [15]	–	–	–	–	89	97.3	91.1	94.4	93.8
HEL [16]	–	–	–	–	109	91	106	103	73.8
HL-60 [17]	–	–	–	–	107	111	110	87.9	101
HL-60 [29]	< 0.0301	< 0.0301	< 0.0301	< 0.0301	–	–	–	–	–
KCL-22 [18]	–	–	–	–	110	108	105	115	97.2
KG-1 [19]	–	–	–	–	92.4	99.7	103	96.5	93.6
KU-812 [20]	–	–	–	–	98.9	94.3	99.6	105	89.7
LAMA-84 [21]	–	–	–	–	106	98.3	96.5	96.8	97.5
ML-2 [22]	–	–	–	–	89.7	94.3	103	98.2	95.8
MOLM-13 [23]	–	–	–	–	93.6	99	98.5	75.5	94.5
MV4-11 [24]	–	–	–	–	107	90.5	96.6	93	105
Mono-Mac-6 [25]	–	–	–	–	92.8	86.9	96.3	94.2	96.3
NOMO-1 [26]	–	–	–	–	101	95.2	98.2	100	97.2
SHI-1 [27]	–	–	–	–	89.9	110	108	95.8	107
THP-1 [28]	–	–	–	–	102	90.1	96.2	93.7	97.3

Nc1nc(Cl)nc2c1ncn2[C@H]1C[C@H](O)[C@@H](CO)O1 [Cladribine]
Settings	IC50 (cell viability) [µM]
BV-173 [1]	0.00438
HEL [2]	0.0335
HL-60 [3]	0.0471
K-562	0.219
KCL-22 [4]	0.142
KG-1 [5]	0.384
KU-812 [6]	0.0989
LAMA-84 [7]	0.0992
ML-2 [8]	0.238
MOLM-13 [9]	0.0253
MV4-11 [10]	0.0202
Mono-Mac-6 [11]	0.0212
NOMO-1 [12]	0.0529
SHI-1 [13]	0.0439
THP-1 [14]	0.358

Settings	area under dose-response curve, co-treatment: AZD3965 100 nM	area under dose-response curve, co-treatment: DMSO vehicle	area under dose-response curve, co-treatment: GSK2194069 100 nM	area under dose-response curve, co-treatment: pictilisib 100 nM	cell viability, 1 nM [%]	cell viability, 10 nM [%]	cell viability, 100 nM [%]	cell viability, 1000 nM [%]	cell viability, 10000 nM [%]
BV-173 [15]	–	–	–	–	128	4.77	-0.0212	0.000225	-0.197
HEL [16]	–	–	–	–	105	99.2	3.91	0.404	0.141
HL-60 [17]	–	–	–	–	108	88.3	26.6	1.62	-0.177
HL-60 [29]	0.45	0.394	0.459	0.515	–	–	–	–	–
KCL-22 [18]	–	–	–	–	114	111	68.9	15.6	7.11
KG-1 [19]	–	–	–	–	101	105	102	9.9	5.04
KU-812 [20]	–	–	–	–	112	101	53.3	16.5	5.32
LAMA-84 [21]	–	–	–	–	112	100	51.1	5.53	1.72
ML-2 [22]	–	–	–	–	117	100	85.5	7.04	2.51
MOLM-13 [23]	–	–	–	–	100	87.2	4.48	0.607	-0.282
MV4-11 [24]	–	–	–	–	129	81	-0.607	-0.0489	-0.0474
Mono-Mac-6 [25]	–	–	–	–	113	82.5	1.25	0.0892	-0.125
NOMO-1 [26]	–	–	–	–	111	101	21.5	1.41	0.34
SHI-1 [27]	–	–	–	–	87.7	88.7	13.6	0.494	-0.0158
THP-1 [28]	–	–	–	–	102	93.7	102	24.2	26.3

COC(=O)[C@]12CCC(C)(C)C[C@H]1[C@H]1C(=O)C=C3[C@@]4(C)C=C(C#N)C(=O)C(C)(C)[C@@H]4CC[C@@]3(C)[C@]1(C)CC2 [Bardoxolone methyl]
Settings	IC50 (cell viability) [µM]
BV-173 [1]	1.22
HEL [2]	2.24
HL-60 [3]	> 10
K-562	> 10
KCL-22 [4]	1.14
KG-1 [5]	1.09
KU-812 [6]	9.5
LAMA-84 [7]	> 10
ML-2 [8]	1.64
MOLM-13 [9]	> 10
MV4-11 [10]	> 10
Mono-Mac-6 [11]	0.79
NOMO-1 [12]	> 10
SHI-1 [13]	> 10
THP-1 [14]	7.05

Settings	area under dose-response curve, co-treatment: AZD3965 100 nM	area under dose-response curve, co-treatment: DMSO vehicle	area under dose-response curve, co-treatment: GSK2194069 100 nM	area under dose-response curve, co-treatment: pictilisib 100 nM	cell viability, 1 nM [%]	cell viability, 10 nM [%]	cell viability, 100 nM [%]	cell viability, 1000 nM [%]	cell viability, 10000 nM [%]
BV-173 [15]	–	–	–	–	89.7	102	116	61	5.94
HEL [16]	–	–	–	–	106	92.6	117	84.7	-0.0991
HL-60 [17]	–	–	–	–	114	91.8	112	93.6	94.2
HL-60 [29]	0.0976	< 0.0301	0.0723	0.144	–	–	–	–	–
KCL-22 [18]	–	–	–	–	100	107	112	56.2	0.0358
KG-1 [19]	–	–	–	–	96.6	101	117	53.5	1.37
KU-812 [20]	–	–	–	–	84.9	104	113	91.3	59.2
LAMA-84 [21]	–	–	–	–	98.9	96.1	107	106	86
ML-2 [22]	–	–	–	–	91.7	103	113	73.1	-0.425
MOLM-13 [23]	–	–	–	–	107	81.7	118	91.9	87.5
MV4-11 [24]	–	–	–	–	113	111	112	94.3	96.9
Mono-Mac-6 [25]	–	–	–	–	82.9	103	123	44.6	13.7
NOMO-1 [26]	–	–	–	–	99.4	99.3	115	101	80.8
SHI-1 [27]	–	–	–	–	107	103	118	106	94.3
THP-1 [28]	–	–	–	–	95.2	104	108	81.6	56.3
